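Test compounds were applied to cells in 96-well plates for 48 hours at 5 doses. GI50 marks 50% less growth.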 The source made the active and inactive calls. Cut-off read from the data, not from the text of the source: active = GI50 up to about 1.1 µM and inactive = higher.
How the values were obtained:
Assay in all cases: NCI-60 cell line screen, 48 h
UACC-62 = tested on: UACC-62
NCI-H522 = tested on: NCI-H522
Malme-3M = tested on: Malme-3M
DMS-114 = tested on: DMS-114
SK-MEL-5 = tested on: SK-MEL-5
OVCAR-5 = tested on: OVCAR-5
COLO 205 = tested on: COLO 205
LOX IMVI = tested on: LOX IMVI
OVCAR-4 = tested on: OVCAR-4
ACHN = tested on: ACHN
OVCAR-3 = tested on: OVCAR-3
786-0 = tested on: 786-0
SW-620 = tested on: SW-620
IGROV-1 = tested on: IGROV-1
EKVX = tested on: EKVX
SF-539 = tested on: SF-539
DU-145 = tested on: DU-145
T47D = tested on: T47D
MDA-MB-231 = tested on: MDA-MB-231
MDA-N = tested on: MDA-N

| SMILES | GI50 (UACC-62) | GI50 (NCI-H522) | GI50 (Malme-3M) | GI50 (DMS-114) | GI50 (SK-MEL-5) | GI50 (OVCAR-5) | GI50 (COLO 205) | GI50 (LOX IMVI) | GI50 (OVCAR-4) | GI50 (ACHN) | GI50 (OVCAR-3) | GI50 (786-0) | GI50 (SW-620) | GI50 (IGROV-1) | GI50 (EKVX) | GI50 (SF-539) | GI50 (DU-145) | GI50 (T47D) | GI50 (MDA-MB-231) | GI50 (MDA-N) |
| --- | --- | --- | --- | --- | --- | --- | --- | --- | --- | --- | --- | --- | --- | --- | --- | --- | --- | --- | --- | --- |
| CCOC(=O)C(=O)Nc1cccc(Cl)c1C | > 100 µM (inactive) | > 100 µM (inactive) | > 100 µM (inactive) | > 100 µM (inactive) | > 100 µM (inactive) | > 100 µM (inactive) | > 100 µM (inactive) | > 100 µM (inactive) | > 100 µM (inactive) | > 100 µM (inactive) | > 100 µM (inactive) | > 100 µM (inactive) | > 100 µM (inactive) | > 100 µM (inactive) | > 100 µM (inactive) | > 100 µM (inactive) |  |  |  |  |
| CCN(CC)CCNC(=O)c1ccccc1NC(=O)C(=O)Nc1ccccc1C(=O)NCCN(CC)CC | > 100 µM (inactive) | 39.2 µM (inactive) | 21 µM (inactive) | 32.2 µM (inactive) | 18.8 µM (inactive) | 94 µM (inactive) | 14.1 µM (inactive) | 24.9 µM (inactive) | 64.1 µM (inactive) | 92.3 µM (inactive) | 62.7 µM (inactive) | 20.6 µM (inactive) | 18.5 µM (inactive) | > 100 µM (inactive) | > 100 µM (inactive) | 24.1 µM (inactive) |  |  |  |  |
| COc1ccc(N2C(=O)[C@H]3CC(C)c4c([nH]c5ccccc45)[C@H]3C2=O)cc1 (stereo partly drawn) | 1.31 µM (inactive) | 1.1 µM (active) | 2.11 µM (inactive) | 2.01 µM (inactive) | 2.31 µM (inactive) | 33.7 µM (inactive) | 2.5 µM (inactive) | 4.6 µM (inactive) | 5.98 µM (inactive) | 6.92 µM (inactive) | 1.87 µM (inactive) | 3.48 µM (inactive) | 2.87 µM (inactive) | 4.41 µM (inactive) | 24 µM (inactive) | 2.77 µM (inactive) | 4.7 µM (inactive) | 4.26 µM (inactive) | 6.35 µM (inactive) | 0.681 µM (active) |
| O=C(Nc1ccc(C(F)(F)F)cc1[N+](=O)[O-])C(=O)C(C(=O)c1ccc2ccccc2c1)C1OC(=O)c2ccccc21 (stereo not drawn) | 5.6 µM (inactive) | 7.11 µM (inactive) | 11.6 µM (inactive) | 8.71 µM (inactive) | 6.76 µM (inactive) | 13.3 µM (inactive) | 8.75 µM (inactive) | 6.38 µM (inactive) | 20.6 µM (inactive) | 13.3 µM (inactive) | 12.8 µM (inactive) | 5.56 µM (inactive) | 4.78 µM (inactive) | 19.5 µM (inactive) | 3.32 µM (inactive) | 1.63 µM (inactive) |  |  |  |  |
